# Test system: SOS test network genes
# Experiment: RNA expression changes of SOS test network genes after MMC perturbation (real-time qPCR)
# Type: cell-based, E. coli
structure (smiles),measurement,setting,value
"CO[C@@]12[C@H](COC(N)=O)C3=C(C(=O)C(C)=C(N)C3=O)N1C[C@@H]1N[C@@H]12 [MMC, Mitomycin C]",Transcriptional response of all genes in the test network,0.75 μg/ml MMC vs 0.5 μg/ml MMC baseline,statistically significant upregulation
same,"Relative RNA expression change xi=[RNAi]pert/[RNAi]cont−1, dinI","0.75 μg/ml MMC vs control cells at 0.5 μg/ml MMC, gene dinI",0.334
same,"Relative RNA expression change xi=[RNAi]pert/[RNAi]cont−1, lexA","0.75 μg/ml MMC vs control cells at 0.5 μg/ml MMC, gene lexA",0.321
same,"Relative RNA expression change xi=[RNAi]pert/[RNAi]cont−1, recA","0.75 μg/ml MMC vs control cells at 0.5 μg/ml MMC, gene recA",0.496
same,"Relative RNA expression change xi=[RNAi]pert/[RNAi]cont−1, recF","0.75 μg/ml MMC vs control cells at 0.5 μg/ml MMC, gene recF",0.523
same,"Relative RNA expression change xi=[RNAi]pert/[RNAi]cont−1, rpoD","0.75 μg/ml MMC vs control cells at 0.5 μg/ml MMC, gene rpoD",0.327
same,"Relative RNA expression change xi=[RNAi]pert/[RNAi]cont−1, rpoH","0.75 μg/ml MMC vs control cells at 0.5 μg/ml MMC, gene rpoH",0.786
same,"Relative RNA expression change xi=[RNAi]pert/[RNAi]cont−1, rpoS","0.75 μg/ml MMC vs control cells at 0.5 μg/ml MMC, gene rpoS",0.672
same,"Relative RNA expression change xi=[RNAi]pert/[RNAi]cont−1, ssb","0.75 μg/ml MMC vs control cells at 0.5 μg/ml MMC, gene ssb",0.251
same,"Relative RNA expression change xi=[RNAi]pert/[RNAi]cont−1, umuDC","0.75 μg/ml MMC vs control cells at 0.5 μg/ml MMC, gene umuDC",0.834

# — US20130060543A1, “SYSTEMS AND METHODS FOR REVERSE ENGINEERING MODELS OF BIOLOGICAL NETWORKS” (TRUSTEES OF BOSTON UNIVERSITY, priority 2002, published 2013)
